Results published in PubChem BioAssay AID1845203 (Molecular Pharmacology Branch, DTP, NCI, 2023).

System: G-401 tumor spheroids, viability % test/control
Experiment: Anticancer human tumor G-401 cell line growth inhibition;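 further: spheroids exposed to compound for 7 days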;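 on viability, T/C: 100% = DMSO vehicle-treated spheroids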
Conditions: spheroids with HUVEC and MSC; for IC50: curve of first compound; for viability, T/C: stronger effect = lower value
From the text: Multicellular complex tumor spheroid response to DNA repair inhibitors in combination with DNA-damaging drugs
This study explores the anticancer activities of DNA-damaging drugs and inhibitors of DNA damage repair, both as single agents and in combinations. Complex tumor spheroids comprised of malignant cells, endothelial cells and mesenchymal stem cells served as an in vitro model for human solid tumors. This model system incorporates physiologically relevant features and patient-derived or established malignant cell lines with clinically relevant genetic alterations from many tumor types. Twenty-six patient-derived or established malignant cell lines were evaluated representing sarcoma, melanoma, small cell lung cancer (SCLC), non-small cell lung cancer (NSCLC), as well as bladder, ovarian and pancreatic cancers. The concentration ranges selected for each drug and investigational agent were based upon clinically achievable concentrations if the clinical Cmax of the agent was known.
Compounds. The drugs and compounds olaparib (NSC753686), talazoparib (NSC767125), berzosertib (NSC777718), elimusertib (NSC800525), nedisertib (NSC802822), VX-984 (NSC792969), AZD-1390 (NSC803789), temozolomide (NSC362856), topotecan (NSC609699), trabectedin (NSC813783), staurosporine (NSC755774), and gemcitabine (NSC613327) were obtained from the National Cancer Institute (NCI) Developmental Therapeutics Program Chemical Repository. The FDA-approved anticancer drug set is available from the Developmental Therapeutics Program at https://dtp.cancer.gov/organization/dscb/obtaining/available_plates.htm. […] The stock solutions were prepared in dimethyl sulfoxide (DMSO, Sigma-Aldrich, St. Louis, MO, cat. D2650) at 400-fold the tested concentration and stored at -70 degrees C. Prior to their use, the stock solutions were diluted in fresh medium and the final DMSO concentration in the assay was 0.25% (v/v). All drugs and investigational agents were tested over a range starting from a high concentration at or near the clinical Cmax and decreasing in half-log increments. If the clinical Cmax for an agent had not been determined, the highest concentration tested was 10 microM.
Cell Lines. The patient-derived cancer cell (PDC) lines: 156681-154-R-J1-PDC, 283228-195-R-J1-PDC, 287954-098-R-J1-PDC, 292921-168-R-J2-PDC, 349418-098-R-PDC, 425362-245-T-J1-PDC, 556581-035-R-J1-PDC, and BL0293-F563-PDC were received from the NCI Patient-Derived Models Repository (PDMR, https://pdmr.cancer.gov). The established cell lines HS-SY-2 (RRID:CVCL_8719), MPNST, and SYO-1 (RRID:CVCL_7146) were obtained from the Sloan Kettering Institute. The alveolar soft parts sarcoma cell line ASPS-1 (RRID:CVCL_S738) was established at the NCI and grown from internal seed stocks. The following established cell lines were purchased from the American Type Culture Collection (ATCC, Manassas, VA): G-401 (ATCC, cat. CRL-1441, RRID:CVCL_0270), SW982 (ATCC, cat. HTB-93, RRID:CVCL_1734), VA-ES-BJ (ATCC, cat. CRL-2138, RRID:CVCL_1785), NCI-H719 (ATCC, cat. CRL-5837, RRID:CVCL_1582), NCI-H196 (ATCC, cat. CRL-5823, RRID:CVCL_1509), NCI-H841 (ATCC, cat. CRL-5845, RRID:CVCL_1595), NCI-H1618 (ATCC, cat. CRL-5879, RRID:CVCL_1480), NCI-H1876 (ATCC, cat. CRL-5902, RRID:CVCL_1503), DMS 114 (ATCC, cat. CRL-2066; RRID:CVCL_1174), NCI-H211 (ATCC, cat. CRL-5824; RRID:CVCL_1529), and SW 1271 (ATCC, cat. CRL-2177, RRID:CVCL_1716). The small cell lung cancer cell line COR-L88 was purchased from Sigma-Aldrich (cat. 92031917-1VL, RRID:CVCL_1141). The non-small cell lung cancer cell lines NCI-H226 (RRID:CVCL_1544) and NCI-H322M (RRID:CVCL_1557) were established at the NCI and grown from internal seed stocks. Pooled donor human umbilical vein endothelial cells (HUVEC, Lonza, cat. CC-2519) and human mesenchymal stem cells (hMSC, Lonza, cat. PT-2501) were purchased from Lonza (Walkersville, MD).
Cell Culture. All cells were maintained in an incubator at 37 degrees C and 5% CO2 with 95% humidity. […]

[1] = second compound 0.003 µM, first compound 0.00949 µM
[2] = second compound 0.003 µM, first compound 0.03 µM
[3] = second compound 0.003 µM, first compound 0.0949 µM
[4] = second compound 0.003 µM, first compound 0.3 µM
[5] = second compound 0.003 µM, first compound 0.949 µM
[6] = second compound 0.003 µM, first compound 3 µM
[7] = second compound 0.00949 µM, first compound 0.00949 µM
[8] = second compound 0.00949 µM, first compound 0.03 µM
[9] = second compound 0.00949 µM, first compound 0.0949 µM
[10] = second compound 0.00949 µM, first compound 0.3 µM
[11] = second compound 0.00949 µM, first compound 0.949 µM
[12] = second compound 0.00949 µM, first compound 3 µM
[13] = second compound 0.03 µM, first compound 0.00949 µM
[14] = second compound 0.03 µM, first compound 0.03 µM
[15] = second compound 0.03 µM, first compound 0.0949 µM
[16] = second compound 0.03 µM, first compound 0.3 µM
[17] = second compound 0.03 µM, first compound 0.949 µM
[18] = second compound 0.03 µM, first compound 3 µM
[19] = second compound 0.0949 µM, first compound 0.00949 µM
[20] = second compound 0.0949 µM, first compound 0.03 µM
[21] = second compound 0.0949 µM, first compound 0.0949 µM
[22] = second compound 0.0949 µM, first compound 0.3 µM
[23] = second compound 0.0949 µM, first compound 0.949 µM
[24] = second compound 0.0949 µM, first compound 3 µM
[25] = second compound 0.3 µM, first compound 0.00949 µM
[26] = second compound 0.3 µM, first compound 0.03 µM
[27] = second compound 0.3 µM, first compound 0.0949 µM
[28] = second compound 0.3 µM, first compound 0.3 µM
[29] = second compound 0.3 µM, first compound 0.949 µM
[30] = second compound 0.3 µM, first compound 3 µM

Compound	IC50 (second compound 0.003 µM)	IC50 (second compound 0.00949 µM)	IC50 (second compound 0.03 µM)	IC50 (second compound 0.0949 µM)	IC50 (second compound 0.3 µM)	viability, T/C [3]	viability, T/C [4]	viability, T/C [5]	viability, T/C [6]	viability, T/C [9]	viability, T/C [10]	viability, T/C [11]	viability, T/C [12]	viability, T/C [15]	viability, T/C [16]	viability, T/C [17]	viability, T/C [18]	viability, T/C [21]	viability, T/C [22]	viability, T/C [23]	other results
CNCc1ccc(-c2cc(-c3nc(-c4ccc(S(=O)(=O)C(C)C)cc4)cnc3N)on2)cc1 + CC[C@@]1(O)C(=O)OCc2c1cc1n(c2=O)Cc2cc3c(CN(C)C)c(O)ccc3nc2-1	326 nM	< 9.49 nM	< 9.49 nM	< 9.49 nM	< 9.49 nM	81.7%	50.5%	30.2%	21.1%	39.5%	21.5%	16.5%	17.1%	17.9%	19.5%	20.8%	18.1%	12.4%	16.4%	16.9%	viability, T/C [1]: 82.9%; viability, T/C [2]: 88%; viability, T/C [7]: 43.9%; viability, T/C [8]: 51.2%; viability, T/C [13]: 21%; viability, T/C [14]: 15.8%; viability, T/C [19]: 8.75%; viability, T/C [20]: 8.82%; viability, T/C [24]: 13.3%; viability, T/C [25]: 4.81%; viability, T/C [26]: 6.19%; viability, T/C [27]: 7.23%; viability, T/C [28]: 9.53%; viability, T/C [29]: 9.78%; viability, T/C [30]: 4.97%
Cn1ncnc1[C@H]1c2n[nH]c(=O)c3cc(F)cc(c23)N[C@@H]1c1ccc(F)cc1 + CC[C@@]1(O)C(=O)OCc2c1cc1n(c2=O)Cc2cc3c(CN(C)C)c(O)ccc3nc2-1	< 9.49 nM	< 9.49 nM	< 9.49 nM	< 9.49 nM	< 9.49 nM	22.9%	14.9%	13.6%	8.75%	11.5%	10.4%	8.82%	7.7%	6.78%	6.5%	6.42%	5.33%	6.01%	5.6%	5.23%	viability, T/C [1]: 30.3%; viability, T/C [2]: 25.3%; viability, T/C [7]: 14.6%; viability, T/C [8]: 14.9%; viability, T/C [13]: 8.82%; viability, T/C [14]: 7.7%; viability, T/C [19]: 6.07%; viability, T/C [20]: 5.84%; viability, T/C [24]: 3.98%; viability, T/C [25]: 4.4%; viability, T/C [26]: 4.94%; viability, T/C [27]: 4.58%; viability, T/C [28]: 4.17%; viability, T/C [29]: 3.92%; viability, T/C [30]: 2.85%
O=C(c1cc(Cc2n[nH]c(=O)c3ccccc23)ccc1F)N1CCN(C(=O)C2CC2)CC1 + CC[C@@]1(O)C(=O)OCc2c1cc1n(c2=O)Cc2cc3c(CN(C)C)c(O)ccc3nc2-1	991 nM	< 94.9 nM	< 94.9 nM	< 94.9 nM	< 94.9 nM	49.4%	51.8%	52.1%	43.9%	18.2%	19.1%	24%	18.4%	9.43%	10.1%	10.1%	9.87%	7.02%	6.74%	7.7%	viability, T/C (second compound 0.003 µM, first compound 9.49 µM): 28.3%; viability, T/C (second compound 0.003 µM, first compound 30 µM): 13.6%; viability, T/C (second compound 0.00949 µM, first compound 9.49 µM): 17.2%; viability, T/C (second compound 0.00949 µM, first compound 30 µM): 12.4%; viability, T/C (second compound 0.03 µM, first compound 9.49 µM): 9.41%; viability, T/C (second compound 0.03 µM, first compound 30 µM): 9.05%; viability, T/C [24]: 7.1%; viability, T/C (second compound 0.0949 µM, first compound 9.49 µM): 6.71%; viability, T/C (second compound 0.0949 µM, first compound 30 µM): 7.06%; viability, T/C [27]: 4.94%; viability, T/C [28]: 5.39%; viability, T/C [29]: 5.37%; viability, T/C [30]: 6.35%; viability, T/C (second compound 0.3 µM, first compound 9.49 µM): 5.22%; viability, T/C (second compound 0.3 µM, first compound 30 µM): 6.07%
